Experimental data as given in ChEMBL document CHEMBL5608177, “Antitumor activity and transcriptome sequencing (RNA-seq) analyses of hepatocellular carcinoma cells in response to exposure triterpene-nucleoside conjugates” (Eur J Med Chem, 2024).
In brackets after ≈: the same amount, converted by molar mass. Activity calls are given as the source filed them. The rule behind the calls is not given here.

Assays:
SMMC-7721 [1] = assay: Induction of apoptosis in human SMMC-7721 cells assessed as necrotic cells at 15 uM incubated for 24 hrs in presence of zVAD by Annexin V-FITC and propidium iodide staining based flow cytometric analysis (reference value: 0.65 %); assay type: functional
SMMC-7721 [2] = assay: Induction of apoptosis in human SMMC-7721 cells assessed as viable cells at 20 uM incubated for 24 hrs by Annexin V-FITC and propidium iodide staining based flow cytometric analysis (reference value: 99 %); assay type: functional; settings: read-out: Activity
SMMC-7721 [3] = assay: Induction of apoptosis in human SMMC-7721 cells assessed as necrotic cells at 5 uM incubated for 24 hrs by Annexin V-FITC and propidium iodide staining based flow cytometric analysis (reference value: 0.61 %); assay type: functional
[4] = Toxicity in Zebrafish embryo assessed as reduction in survival rate at upto 100 uM incubated for 48 hrs by microscopic analysis; parameters: species or system Danio rerio; settings: in vivo
SMMC-7721 [5] = assay: Antitumor activity against human GFP-stained SMMC-7721 cells inoculated in zebrafish larvae assessed as reduction in tumor growth at < 10 uM incubated for 48 hrs by confocal laser scanning microscopy; assay type: functional, cell-based
SMMC-7721 [6] = assay: Induction of apoptosis in human SMMC-7721 cells assessed as viable cells at 15 uM incubated for 24 hrs by Annexin V-FITC and propidium iodide staining based flow cytometric analysis (reference value: 99.2 %); assay type: functional; settings: read-out: Activity
SMMC-7721 [7] = assay: Induction of apoptosis in human SMMC-7721 cells assessed as early apoptotic cells at 15 uM incubated for 24 hrs by Annexin V-FITC and propidium iodide staining based flow cytometric analysis (reference value: 0.07 %); assay type: functional
A549 = assay: Antiproliferative activity against human A549 cells assessed as inhibition of cell growth incubated for 48 hrs by CCK-8 reagent based spectrophotometric analysis; assay type: functional; settings: A549, 48 h
SMMC-7721 [8] = assay: Induction of apoptosis in human SMMC-7721 cells assessed as late apoptotic cells at 15 uM incubated for 24 hrs by Annexin V-FITC and propidium iodide staining based flow cytometric analysis (reference value: 0.09 %); assay type: functional
SMMC-7721 [9] = assay: Induction of apoptosis in human SMMC-7721 cells assessed as early apoptotic cells at 15 uM incubated for 24 hrs in presence of 3-MA by Annexin V-FITC and propidium iodide staining based flow cytometric analysis (reference value: 0.07 %); assay type: functional
SMMC-7721 [10] = assay: Induction of apoptosis in human SMMC-7721 cells assessed as early apoptotic cells at 15 uM incubated for 24 hrs in presence of zVAD by Annexin V-FITC and propidium iodide staining based flow cytometric analysis (reference value: 0.07 %); assay type: functional
SMMC-7721 [11] = assay: Induction of apoptosis in human SMMC-7721 cells assessed as late apoptotic cells at 15 uM incubated for 24 hrs in presence of zVAD by Annexin V-FITC and propidium iodide staining based flow cytometric analysis (reference value: 0.09 %); assay type: functional
[12] = Toxicity in Zebrafish embryo assessed as reduction in survival rate at >= 30 uM incubated for 48 hrs by microscopic analysis relative to control; parameters: species or system Danio rerio; settings: zebrafish embryos
SMMC-7721 [13] = assay: Antitumor activity against human GFP-stained SMMC-7721 cells inoculated in zebrafish larvae assessed as reduction in tumor growth by measuring survival rate at 10 uM incubated for 48 hrs by confocal laser scanning microscopy; assay type: functional
SMMC-7721 [14] = assay: Induction of apoptosis in human SMMC-7721 cells assessed as upregulation of LC3 expression incubated for 24 hrs by Western blotting analysis; assay type: functional, cell-based
SMMC-7721 [15] = assay: Antitumor activity against human SMMC-7721 cells xenografted in BALB/c mouse assessed as reduction in tumor weight at 10 mg/kg,ip administrated for 3 weeks; assay type: functional, organism-based
SMMC-7721 [16] = assay: Induction of apoptosis in human SMMC-7721 cells assessed as upregulation of Bax expression incubated for 24 hrs by Western blotting analysis; assay type: functional, cell-based
SMMC-7721 [17] = assay: Induction of apoptosis in human SMMC-7721 cells assessed as downregulation of BCL-2 expression at 15 uM incubated for 24 hrs by Western blotting analysis; assay type: functional, cell-based
SMMC-7721 [18] = assay: Antitumor activity against human SMMC-7721 cells xenografted in BALB/c mouse assessed as inhibition of tumor growth at 10 mg/kg,ip administrated daily for 3 weeks relative to control; assay type: functional; parameters: scale not given: the % may be the effect or the level left
[19] = Toxicity in BALB/c mouse xenografted with human SMMC-7721 cells assessed as change in body weight at 10 mg/kg,ip administrated daily for 3 weeks; assay type: organism-based; settings: in vivo, 504 h
SMMC-7721 [20] = assay: Antitumor activity against human SMMC-7721 cells xenografted in BALB/c mouse assessed as reduction in tumor growth at 10 mg/kg,ip administrated for 3 weeks; assay type: functional, organism-based
SMMC-7721 [21] = assay: Antitumor activity against human GFP-stained SMMC-7721 cells inoculated in zebrafish larvae assessed as reduction in tumor growth at 5 to 20 uM incubated for 48 hrs by confocal laser scanning microscopy; assay type: functional, cell-based; settings: dose 5-20 µM
SMMC-7721 [22] = assay: Induction of apoptosis in human SMMC-7721 cells assessed as upregulation of Bax/Bcl-2 ratio incubated for 24 hrs by Western blotting analysis; assay type: functional, cell-based
SMMC-7721 [23] = assay: Antitumor activity against human SMMC-7721 cells xenografted in BALB/c mouse assessed as reduction in tumor weight at 10 mg/kg,ip administrated daily for 3 weeks (reference value: 0.573 +/- 0.137 g); assay type: functional
[24] = Inhibition of PI3K/AKT/mTOR signalling pathway in human SMMC-7721 cells at 10 uM incubated for 24 hrs by transcriptome analysis; assay type: cell-based
SMMC-7721 [25] = assay: Induction of apoptosis in human SMMC-7721 cells assessed as upregulation of Bax/Bcl-2 ratio at 20 uM incubated for 24 hrs by Western blotting analysis; assay type: functional, cell-based
[26] = Aqueous solubility of the compound in […] by HPLC analysis; assay type: physicochemical

Q: What does the source list for `C=C(C)[C@@H]1CC[C@]2(C(=O)OC)CC[C@]3(C)[C@H](CC[C@@H]4[C@@]5(C)C[C@@H](Cc6cn([C@]7(CO)O[C@@H](n8ccc(O)nc8=O)[C@@H](F)[C@@H]7O)nn6)C(=O)C(C)(C)[C@@H]5CC[C@]43C)[C@@H]12`?
A: Activity (SMMC-7721 [1]): 9.3%; viability at 20 µM (SMMC-7721 [2]): 62.3%; Activity (SMMC-7721 [3]): 0.69%; Activity [4]: Non-Toxic; Activity (SMMC-7721 [5]): inactive; viability at 15 µM (SMMC-7721 [6]): 72.8%; Activity (SMMC-7721 [7]): 0.06%; IC50 (A549): 17.7 µM; Activity (SMMC-7721 [8]): 11.4%; Activity (SMMC-7721 [9]): 0.05%; Activity (SMMC-7721 [10]): 0.03%; Activity (SMMC-7721 [11]): 8.65%; survival at 48 h, 30 µM [12]: < 25%; Activity (SMMC-7721 [13]): 85%

Q: Which Activity (SMMC-7721 [14]) does the source give for `C=C(C)[C@@H]1CC[C@]2(C(=O)OC)CC[C@]3(C)[C@H](CC[C@@H]4[C@@]5(C)C[C@@H](Cc6cn([C@H]7C[C@H](n8cc(C)c(O)nc8=O)O[C@@H]7CO)nn6)C(=O)C(C)(C)[C@@H]5CC[C@]43C)[C@@H]12` here?
A: Dose-Dependent Effect

Q: What about the Activity (SMMC-7721 [15]) of the same molecule?
A: Active

Q: And the Activity (SMMC-7721 [1])?
A: 9.33%

Q: And the viability at 20 µM (SMMC-7721 [2])?
A: 58%

Q: What about the Activity (SMMC-7721 [16]) of the same molecule?
A: Dose-Dependent Effect

Q: And the Activity (SMMC-7721 [3])?
A: 0.56%

Q: What about the Activity (SMMC-7721 [17]) of the same molecule?
A: Active

Q: What about the Activity (SMMC-7721 [18]) of the same molecule?
A: 52%

Q: What about the Activity [4] of the same molecule?
A: Non-Toxic

Q: And the Activity [19]?
A: Non-Toxic

Q: What about the Activity (SMMC-7721 [20]) of the same molecule?
A: Active

Q: And the viability at 15 µM (SMMC-7721 [6])?
A: 68.2%

Q: What about the Activity (SMMC-7721 [21]) of the same molecule?
A: Active

Q: What about the Activity (SMMC-7721 [7]) of the same molecule?
A: 0.04%

Q: And the IC50 (A549)?
A: 11.9 µM

Q: What about the Activity (SMMC-7721 [8]) of the same molecule?
A: 15.2%

Q: What about the Activity (SMMC-7721 [22]) of the same molecule?
A: Dose-Dependent Effect

Q: What about the Activity (SMMC-7721 [9]) of the same molecule?
A: 0.23%

Q: And the Activity (SMMC-7721 [10])?
A: 0.04%

Q: And the Activity (SMMC-7721 [11])?
A: 2.77%

Q: And the Activity (SMMC-7721 [23])?
A: 0.275 g

Q: And the inhibition [24]?
A: Active

Q: What about the Activity (SMMC-7721 [25]) of the same molecule?
A: Active

Q: And the solubility [26]?
A: 2.56 µM (≈ 1.98 µg/mL)
